Measured values as given in US6458746B1, “Plant growth regulating formulations” (BASF Aktiengesellschaft, priority 1998, dated 2002).

Columns and labels:
Assay type in all cases: in vivo
[1] = test system: spring wheat (cv. “Ralle”); test: Shoot height reduction in spring wheat, synergistic combinations
Procedure: (§1) Unless otherwise noted, the growth regulating proerties of different compounds in different formulations were determined under greenhouse conditions as follows: […]
(§2) Test plants were grown in plastic pots of approximately 12.5 cm in diameter in a substrate provided with sufficient nutrients and water. At an appropriate shoot length the plants were treated with aqueous sprays of the formulations. The growth-regulating action observed was confirmed at the end of the experiment by measuring the height of the plants. The results obtained were compared with the growth height of the untreated plants.
(§3) To show the synergistic effects of formulations in accordance with the instant invention together with further growth regulating agents, formulations in accordance with the invention were prepared and additional active ingredients added.
Shoot height reduction in spring wheat (cv. “Ralle”) 21 days after treatment with combinations of standard compound S4 and compound VII
Shoot height reduction in spring wheat (cv. “Ralle”) 13 days after treatment with combinations of standard compound S5 and compound VII

[2] = test system: small grains and rice (wheat, barley, oats, rye, rice); test: Shoot length reduction in small grains and rice (statements across species); settings: for dosages needed to obtain results equivalent to compounds VI, VII, and IX: in these plant species, applied in commercial formulations; for activity-enhancing effects of ethoxylated castor oil R 15: barley and wheat, Example 5; for activity in the other plant species compared with wheat: plant species other than wheat; for shoot length reduction compared with compounds II to V: Examples 1 and 2
Procedure: as §1, §2

[3] = test system: rice seedlings [cvs. “Koshihikari” (tall), “Tan-ginbozu” (dwarf), “Waito C” (dwarf)]; test: Shoot growth of rice seedlings, combinations with GA3; settings: 7 days after treatment, 1 kg/ha ammonium sulphate added; for Shoot growth Waito C [% of Control]: 100% = 8.7 cm; for Shoot growth Tan-ginbozu [% of Control]: 100% = 9.4 cm; for Shoot growth Koshihikari [% of Control]: 100% = 17.4 cm
Procedure: as §1, §2
The synergizing effect of compound VII on shoot elongation in rice is shown in the results of Example 7.
Enhanced shoot growth of rice seedlings [cvs. “Koshihikari” tall), “Tan-ginbozu” (dwarf), “Waito C” (dwarf)] 7 days after treatment with combinations of compound 6 with GA3^d

wheat = test: Greenhouse shoot length test, wheat; settings: for Shoot length reduction [activity, relative to control] in wheat: 1% formulations in cyclohexanone: Emulan EL = 4:1; for Shoot length Wheat [% of control]: 1% formulations in Atlas G 1086; for dosages of active ingredient needed to obtain results equivalent to compounds VI, VII, and IX: in wheat; for Shoot length reduction [activity, relative to control] in wheat: key: 0: no effect; +: low activity; ++: intermediate activity; +++: high activity
Procedure: as §1, §2
(§4) Assays with wheat, barley, oat, and rye plants were carried out as described above. The aqueous spray solutions were prepared as follows: […]

rye = test: Greenhouse shoot length test, rye; settings: 1% formulations in cyclohexanone: Emulan EL = 4:1; note: key: 0: no effect; +: low activity; ++: intermediate activity; +++: high activity
Procedure: as §1, §2

oats = test: Greenhouse shoot length test, oats; settings: 1% formulations in cyclohexanone: Emulan EL = 4:1; note: key: 0: no effect; +: low activity; ++: intermediate activity; +++: high activity
Procedure: as §1, §2

barley = test: Greenhouse shoot length test, barley; settings: for Shoot length reduction [activity, relative to control] in barley: 1% formulations in cyclohexanone: Emulan EL = 4:1; for Shoot length Barley [% of control]: 1% formulations in Atlas G 1086
Procedure: as §1, §2, §4

[4] = test system: spring barley (cv. “Alexis”); test: Shoot height reduction in spring barley, synergistic combinations; settings: 20 days after treatment
Procedure: as §1, §2, §3
Shoot height reduction in spring barley (cv. “Alexis”) 20 days after treatment with combinations of standard compound S2 and compound VII
Shoot height reduction in spring barley (cv. “Alexis”) 20 days after treatment with combinations of standard compound S4 and compound VII

rice = test: Greenhouse shoot length test, rice; settings: 1% formulations in cyclohexanone: Emulan EL = 4:1; note: key: 0: no effect; +: low activity; ++: intermediate activity; +++: high activity
Procedure: as §1, §2

[5] = 750 g/ha ai, adjuvant R 15 500 g/ha
[6] = 250 g/ha ai, adjuvant R 15 500 g/ha

Compound: CCOC(=O)C1CC(=O)C(=C(O)C2CC2)C(=O)C1 (centres unmarked) [S5, trinexapac-ethyl, reference compound]
- % Shoot height reduction Actual ([1]; 30 g/ha a.i., 13 days after treatment): 14%
- dosages needed to obtain results equivalent to compounds VI, VII, and IX [2]: approximately 20 times higher

Compound: C=C1C[C@]23C[C@@]1(O)CC[C@H]2[C@@]12C=C[C@H](O)[C@@](C)(C(=O)O1)[C@H]2[C@@H]3C(=O)O (single isomer, unassigned; ent-3) [S6, ent-3α,10,13-trihydroxy-20-norgiberrell-1,16-diene-7,19-dioic acid 19,10-lactone, reference compound]
- Shoot growth Waito C [% of Control] ([3]; S6 1.25 g/ha ai): 115 % of Control
- Shoot growth Tan-ginbozu [% of Control] ([3]; S6 1.25 g/ha ai): 128 % of Control
- Shoot growth Koshihikari [% of Control] ([3]; S6 1.25 g/ha ai): 109 % of Control
- Shoot growth Waito C [% of Control] ([3]; S6 2.50 g/ha ai): 143 % of Control
- Shoot growth Tan-ginbozu [% of Control] ([3]; S6 2.50 g/ha ai): 160 % of Control
- Shoot growth Koshihikari [% of Control] ([3]; S6 2.50 g/ha ai): 112 % of Control
- Shoot growth Waito C [% of Control] ([3]; S6 5.00 g/ha ai): 190 % of Control
- Shoot growth Tan-ginbozu [% of Control] ([3]; S6 5.00 g/ha ai): 186 % of Control
- Shoot growth Koshihikari [% of Control] ([3]; S6 5.00 g/ha ai): 124 % of Control

Compound: Dichloromethano-16,17-dihydro-GA5-13-acetate [Comp. V]
- Shoot length reduction [activity, relative to control] in wheat (wheat): 0
- Shoot length Wheat [% of control] (wheat; 1.6 g/ha ai): 101 % of control
- Shoot length Wheat [% of control] (wheat; 3.1 g/ha ai): 95 % of control
- Shoot length Wheat [% of control] (wheat; 6.3 g/ha ai): 84 % of control
- Shoot length Wheat [% of control] (wheat; 12.5 g/ha ai): 75 % of control
- Shoot length reduction [activity, relative to control] in rye (rye): +
- Shoot length reduction [activity, relative to control] in oats (oats): +
- Shoot length reduction [activity, relative to control] in barley (barley): 0
- Shoot length Barley [% of control] (barley; 1.6 g/ha ai): 99 % of control
- Shoot length Barley [% of control] (barley; 3.1 g/ha ai): 97 % of control
- Shoot length Barley [% of control] (barley; 6.3 g/ha ai): 82 % of control
- Shoot length Barley [% of control] (barley; 12.5 g/ha ai): 76 % of control

Compound: C[N+](C)(C)CCCl [S2, chlormequat chloride, reference compound]
- Shoot length [% of control] Wheat (wheat; [5]): 75 % of control
- Shoot length [% of control] Wheat (wheat; 750 g/ha ai, no adjuvant): 83 % of control
- dosages of active ingredient needed to obtain results equivalent to compounds VI, VII, and IX (wheat): approximately 100 times higher
- % Shoot height reduction Actual ([4]; 750 g/ha a.i.): 11%
- % Shoot height reduction Actual ([4]; 1500 g/ha a.i.): 10%
- activity-enhancing effects of ethoxylated castor oil R 15 [2]: not or only at a far lower degree found
- activity in the other plant species compared with wheat [2]: significantly less active
- Shoot length [% of control] Barley (barley; [5]): 94 % of control
- Shoot length [% of control] Barley (barley; 750 g/ha ai, no adjuvant): 94 % of control

Compound: CC(=O)OC12CCC3C(CC1C)(C2)C(C(=O)O)C1C2(C)C=CCC13OC2=O (stereo not drawn) [Comp. VI, endo-16,17-Dihydro-GA5-13-acetate]
- Shoot length reduction [activity, relative to control] in wheat (wheat): +++
- Shoot length Wheat [% of control] (wheat; 1.6 g/ha ai): 88 % of control
- Shoot length Wheat [% of control] (wheat; 3.1 g/ha ai): 88 % of control
- Shoot length Wheat [% of control] (wheat; 6.3 g/ha ai): 68 % of control
- Shoot length Wheat [% of control] (wheat; 12.5 g/ha ai): 64 % of control
- Shoot length reduction [activity, relative to control] in rye (rye): +++
- Shoot length reduction [activity, relative to control] in oats (oats): ++
- Shoot length reduction [activity, relative to control] in rice (rice): +++
- shoot length reduction compared with compounds II to V [2]: superior to compounds II to V
- Shoot length reduction [activity, relative to control] in barley (barley): +++
- Shoot length Barley [% of control] (barley; 1.6 g/ha ai): 95 % of control
- Shoot length Barley [% of control] (barley; 3.1 g/ha ai): 84 % of control
- Shoot length Barley [% of control] (barley; 6.3 g/ha ai): 65 % of control
- Shoot length Barley [% of control] (barley; 12.5 g/ha ai): 53 % of control

Compound: CCCO[C@]12CC[C@@H]3[C@](C[C@H]1C)(C2)[C@@H](C(=O)O)[C@H]1[C@@]32CC=C[C@]1(C)C(=O)O2 [Comp. IX, exo-16,17-Dihydro-GA5-13-n-propyl ether]
- Shoot length reduction [activity, relative to control] in wheat (wheat): ++
- Shoot length reduction [activity, relative to control] in rye (rye): ++
- Shoot length reduction [activity, relative to control] in oats (oats): ++
- Shoot length reduction [activity, relative to control] in rice (rice): ++
- shoot length reduction compared with compounds II to V [2]: superior to compounds II to V
- Shoot length reduction [activity, relative to control] in barley (barley): ++

Compound: CC1CC23CC1(O)CCC2C12CC=CC(C)(C(=O)O1)C2C3C(=O)O (stereo not drawn) [Comp. II, exo-16,17-Dihydro-GA5]
- Shoot length reduction [activity, relative to control] in wheat (wheat): +
- Shoot length reduction [activity, relative to control] in rye (rye): ++
- Shoot length reduction [activity, relative to control] in oats (oats): 0
- Shoot length reduction [activity, relative to control] in barley (barley): +

Compound: endo-16,17-Dihydro-GA5 [Comp. III]
- Shoot length reduction [activity, relative to control] in wheat (wheat): ++
- Shoot length reduction [activity, relative to control] in rye (rye): +++
- Shoot length reduction [activity, relative to control] in oats (oats): 0
- Shoot length reduction [activity, relative to control] in barley (barley): ++

Compound: O=P(O)(O)CCCl [S1, ethephon, reference compound]
- Shoot length [% of control] Wheat (wheat; [6]): 92 % of control
- Shoot length [% of control] Wheat (wheat; 250 g/ha ai, no adjuvant): 93 % of control
- activity-enhancing effects of ethoxylated castor oil R 15 [2]: not or only at a far lower degree found
- dosages needed to obtain results equivalent to compounds VI, VII, and IX [2]: approximately 20 times higher
- Shoot length [% of control] Barley (barley; [6]): 101 % of control
- Shoot length [% of control] Barley (barley; 250 g/ha ai, no adjuvant): 95 % of control

Compound: prohexadione-Ca [S4, reference compound]
- % Shoot height reduction Actual ([1]; 30 g/ha a.i., 21 days after treatment): 6%
- % Shoot height reduction Actual ([1]; 60 g/ha a.i., 21 days after treatment): 15%
- dosages needed to obtain results equivalent to compounds VI, VII, and IX [2]: approximately 20 times higher

Compound: C[N+]1(C)CCCCC1 [S3, mepiquat chloride, reference compound]
- dosages of active ingredient needed to obtain results equivalent to compounds VI, VII, and IX (wheat): approximately 100 times higher
- activity in the other plant species compared with wheat [2]: significantly less active
